Assay results: US4075189A, “Hexapeptides” (Parke, Davis & Company, priority 1976, dated 1978)
Where “and” joins values, the source holds several entries; their conditions need not be identical. Identical values can stand only once. No end group written: not given here.

Tested on: LRF (luteinizing hormone releasing factor) induced luteinizing hormone (LH) release
Assay: LRF antagonist activity in vitro, rat anterior pituitary cell cultures (Vale et al.)
Format: cell-based
Details: LRF alone
Excerpt: Hexapeptides of this invention were screened for LRF antagonist activity in vitro using rat anterior pituitary cell cultures as described by Vale et. al. [Endocrinology, 91, 562 (1972)]. The inhibition of LRF (luteinizing hormone releasing factor) induced luteinizing hormone (LH) release into the culture medium is the endpoint in this in vitro bioassay.

Substance: LRF Control: luteinizing hormone releasing factor, also referred to as luteinizing hormone releasing hormone, LH-RH; stimulus in the bioassay (QHWSYGLRPG; ends and bridges not checked; UniProt P01148 24-33, looked up)
- LH Value (Molar Conc. 2.5×10^-10): 38.98 ng/mL
- LH Value (Molar Conc. 3.5×10^-10): 35.60 ng/mL and 49.99 ng/mL and 41.70 ng/mL and 64.13 ng/mL
- LH Value (Molar Conc. 5×10^-10): 63.61 ng/mL
